Read-outs that look alike come from different tables or passages of the source. Bounds are passed on as bounds.

This is an account of results in patent publication US4622421A, “Phenylalkanoic acid derivatives and their use” (Sankyo Company Limited, priority 1983, dated 1986).

Assay [1] concerns pressure-induced pain threshold. The experiment in a line: Pain test for analgesic activity (modified Randall and Selitto, Brewers' yeast-inflamed paw). Particulars: read-out: Analgesic activity, ED50. Format: in vivo, Male Wistar-Imamichi rats. Here is the method:
This test was conducted according to a modification of the method reported by L. O. Randall and J. J. Selitto in Arch. Int.
Male Wistar-Imamichi rats of 4 weeks of age and weighing 60-90 g were injected with 0.1 ml of a 20% by weight suspension of Brewers' yeast in the right hind paw. […] Each of these was given orally a test compound as an aqueous tragacanth suspension. 1 and 2 hours after administration of the test compound, the pain threshold was determined by observing pain responses (such as struggling or squeaking) when the inflamed or normal paw was subjected to pressure by a machine (Ugo-Basile).

The subject of assay [2] is carrageenin-induced inflammation (hind paw oedema). The assay is described as follows: Carrageenin oedema test for anti-inflammatory activity. Format: in vivo, Male Wistar rats. Conditions: po, read-out: Anti-inflammatory activity, ID50. On the procedure: Male Wistar rats weighing 120-150 g were fasted overnight and then received a test compound per os as an aqueous tragacanth suspension. 30 minutes later, inflammation was induced by the subcutaneous injection of 0.05 ml of a 1% w/v carrageenin suspension into the plantar tissue of a hind paw of each rat [Winter et al., Proc. Soc. […] The anti-oedema activity was measured volumetrically, by assessing the response, as calculated from the following equation: Response=(V-Vo)/Vo where Vo and V represent, respectively, the paw volume immediately before and 3 hours after the carrageenin injection.
For orientation: In the carrageenan paw model, swelling and tenderness develop within hours.

Assay [3] relates to IgM antibody-producing cells in the spleen. The experiment in a line: Test for immuno-regulatory activity (Cunningham's method, IgM antibody production to sheep erythrocytes). Format: in vivo, female mice of the BALB/c strain. Particulars: mouse, oral, dose from 1 to 10 mg per kg, spleen after 5 days. Here is the method:
The immuno-regulatory activity of (±)-2-[4-(cis-2-hydroxycyclohexylmethyl)phenyl]propionic acid was tested by Cunningham's method [A. J. Cunningham and A. Szenberg, Immunology 14, 599 (1968)]. The test compound was administered orally to female mice of the BALB/c strain and simultaneously sheep erythrocytes were administered intraperitonially, in order to sensitise the animal to these erythrocytes as an antigen. After 5 days, the spleen of the experimental animal was extracted and the number of IgM antibody-producingcells in the spleen cells was calculated.

The mark [4] stands for this setting: rat, oral, pain threshold 1 and 2 hours after administration, Litchfield and Wilcoxon.
[5] abbreviates: rat, per os, paw volume 3 hours after carrageenin, dose inhibiting the response by 50%.

Take `CC(C(=O)O)c1ccc(C[C@@H]2CCCC[C@@H]2O)cc1` (mixture of isomers) [Compound 1, (±)-2-[4-(cis-2-hydroxycyclohexylmethyl)phenyl]propionic acid]: the ED50 worked out at 0.86 mg/kg in assay [1] (setting [4]) and 3.3 mg/kg in assay [2] (setting [5]). Also, the “percent inhibition of antibody production” value in assay [3] is no less than 50%.
`CC(C(=O)O)c1ccc(C[C@@H]2CCCC[C@H]2O)cc1` (mixture of isomers) [Compound 2, (±)-2-[4-(trans-2-hydroxycyclohexylmethyl)phenyl]propionic acid]: the ED50 was 0.76 mg/kg in assay [1] (setting [4]) and 0.96 mg/kg in assay [2] (setting [5]).
Regarding `COc1ccc2c(c1)c(CC(=O)O)c(C)n2C(=O)c1ccc(Cl)cc1` [Compound 3, Indomethacin, reference compound], the ED50 was 1.6 mg/kg in assay [1] (Rattus norvegicus, po) and 2.2 mg/kg in assay [2] (Rattus norvegicus, 3 h).
